{"source": "patent US10428134B2", "about": "“Immunoglobulins and uses thereof” (JANSSEN PHARMACEUTICA NV, priority 2016, dated 2019)", "experiment": "Repeat dosing in DIO mice: fasting glucose, insulin, FGF21, plasma lipids", "type": "in vivo, mouse", "conditions": "0.3 nmol/kg s.c. daily", "experimental": "To control for the dosing frequency, all animals were dosed daily. Dosing frequency was determined on the basis of DIO mouse PK data for compound 2 and dulaglutide. Animals in the dulaglutide group received this drug daily. The vehicle-treated animals received vehicle daily. […] The day prior to initiating of dosing, animals were weighed and grouped by body weight. […].\nBeginning 24-hr after the first dosing, three groups of mice were pair-fed (PF) to the 1.0, 2.0, or 4.0 nmol/kg compound 2-treated animals. The amount of food in the hopper of pair-fed mice was adjusted to match the average food consumed in the previous 24 hours by mice in the compound treatment group to which they were being matched. All PF groups were dosed daily with vehicle. On the ninth day (or Day 10 for the pair-fed groups), animals were fasted for 6 hours and body weight and fasting glucose were measured. Blood was collected for measurements of insulin, FGF21 and plasma lipids. The food intake, body weight, body composition, fasting glucose, fasting insulin, fasting FGF21, and fasting plasma lipid data are shown in tables 20-26.", "data": [{"substance": "Dulaglutide: the GLP1R agonist, dulaglutide [reference compound]", "values": [{"measurement": "plasma Free Fatty Acids", "setting": "after repeated dosing", "result": "73.2 ± 12.0", "unit": "µmol/L"}, {"measurement": "plasma Free Glycerol", "setting": "after repeated dosing", "result": "0.5 ± 0.1", "unit": "mmol/L"}, {"measurement": "plasma Total cholesterol", "setting": "after repeated dosing", "result": "146.1 ± 3.3", "unit": "mg/dL"}, {"measurement": "plasma Triglycerides", "setting": "after repeated dosing", "result": "24.1 ± 2.3", "unit": "mg/dL"}, {"measurement": "6 hour fasting Blood Glucose", "setting": "after repeated dosing (9 days)", "result": "123 ± 5", "unit": "mg/dL"}, {"measurement": "6 hour fasting Plasma Insulin", "setting": "after repeated dosing (9 days)", "result": "1.4 ± 0.2", "unit": "ng/mL"}, {"measurement": "6 hour fasting plasma FGF21", "setting": "after repeated dosing (9 days)", "result": "0.5 ± 0.1", "unit": "ng/mL"}]}]}
